Test results reported in ChEMBL document CHEMBL5724914, “Linking interpersonal differences in gut microbiota composition and drug biotransformation activity” (2024).

Assays:
[1] = The drug is tested on Z-028 corresponding to mouse gut metagenome with ENA study accession number: PRJEB37062 and ENA sample accession number: ERS12561827 for biotransformation under anaerobic condition. The drug concentrations were measured over 9 timepoints collected between 0 and 24 hours of incubation by liquid-chromatography-coupled mass spectrometry (LC–MS); conditions: 2 µM
[2] = The drug is tested on WLS-098 corresponding to human gut metagenome with ENA study accession number: PRJEB37062 and ENA sample accession number: ERS12561754 for biotransformation under anaerobic condition. The drug concentrations were measured over 9 timepoints collected between 0 and 24 hours of incubation by liquid-chromatography-coupled mass spectrometry (LC–MS); conditions: 2 µM
[3] = human gut metagenome, 24 h, 2 µM
[4] = human gut metagenome, 24 h, 2 µM; remark: listed apart in the source
[5] = The drug is tested on Z-003 corresponding to pig gut metagenome with ENA study accession number: PRJEB37062 and ENA sample accession number: ERS12561803 for biotransformation under anaerobic condition. The drug concentrations were measured over 9 timepoints collected between 0 and 24 hours of incubation by liquid-chromatography-coupled mass spectrometry (LC–MS); conditions: 2 µM
[6] = The drug is tested on Z-007 corresponding to rat gut metagenome with ENA study accession number: PRJEB37062 and ENA sample accession number: ERS12561807 for biotransformation under anaerobic condition. The drug concentrations were measured over 9 timepoints collected between 0 and 24 hours of incubation by liquid-chromatography-coupled mass spectrometry (LC–MS); conditions: 2 µM
[7] = The drug is tested on WLS-310 corresponding to human gut metagenome with ENA study accession number: PRJEB37062 and ENA sample accession number: ERS12561785 for biotransformation under anaerobic condition. The drug concentrations were measured over 9 timepoints collected between 0 and 24 hours of incubation by liquid-chromatography-coupled mass spectrometry (LC–MS); conditions: 2 µM
[8] = The drug is tested on Z-027 corresponding to metagenome with ENA study accession number: PRJEB37062 and ENA sample accession number: ERS12561826 for biotransformation under anaerobic condition. The drug concentrations were measured over 9 timepoints collected between 0 and 24 hours of incubation by liquid-chromatography-coupled mass spectrometry (LC–MS); conditions: 2 µM
[9] = human gut metagenome, 24 h, 2 µM; remark: listed apart in the source
[10] = The drug is tested on WLS-006 corresponding to human gut metagenome with ENA study accession number: PRJEB37062 and ENA sample accession number: ERS12561741 for biotransformation under anaerobic condition. The drug concentrations were measured over 9 timepoints collected between 0 and 24 hours of incubation by liquid-chromatography-coupled mass spectrometry (LC–MS); conditions: 2 µM
[11] = The drug is tested on Z-018 corresponding to pig gut metagenome with ENA study accession number: PRJEB37062 and ENA sample accession number: ERS12561817 for biotransformation under anaerobic condition. The drug concentrations were measured over 9 timepoints collected between 0 and 24 hours of incubation by liquid-chromatography-coupled mass spectrometry (LC–MS); conditions: 2 µM
[12] = human gut metagenome, 24 h, 2 µM; remark: listed apart in the source
[13] = The drug is tested on WLS-077 corresponding to human gut metagenome with ENA study accession number: PRJEB37062 and ENA sample accession number: ERS12561750 for biotransformation under anaerobic condition. The drug concentrations were measured over 9 timepoints collected between 0 and 24 hours of incubation by liquid-chromatography-coupled mass spectrometry (LC–MS); conditions: 2 µM
[14] = The drug is tested on WLS-170 corresponding to human gut metagenome with ENA study accession number: PRJEB37062 and ENA sample accession number: ERS12561762 for biotransformation under anaerobic condition. The drug concentrations were measured over 9 timepoints collected between 0 and 24 hours of incubation by liquid-chromatography-coupled mass spectrometry (LC–MS); conditions: 2 µM
[15] = human gut metagenome, 24 h, 2 µM; remark: listed apart in the source
[16] = The drug is tested on Z-026 corresponding to metagenome with ENA study accession number: PRJEB37062 and ENA sample accession number: ERS12561825 for biotransformation under anaerobic condition. The drug concentrations were measured over 9 timepoints collected between 0 and 24 hours of incubation by liquid-chromatography-coupled mass spectrometry (LC–MS); conditions: 2 µM
[17] = The drug is tested on Z-029 corresponding to rat gut metagenome with ENA study accession number: PRJEB37062 and ENA sample accession number: ERS12561828 for biotransformation under anaerobic condition. The drug concentrations were measured over 9 timepoints collected between 0 and 24 hours of incubation by liquid-chromatography-coupled mass spectrometry (LC–MS); conditions: 2 µM
[18] = human gut metagenome, 24 h, 2 µM; remark: listed apart in the source
[19] = human gut metagenome, 24 h, 2 µM; remark: listed apart in the source
[20] = The drug is tested on WLS-240 corresponding to human gut metagenome with ENA study accession number: PRJEB37062 and ENA sample accession number: ERS12561773 for biotransformation under anaerobic condition. The drug concentrations were measured over 9 timepoints collected between 0 and 24 hours of incubation by liquid-chromatography-coupled mass spectrometry (LC–MS); conditions: 2 µM
Also: call rule not given here.

Row | Compound | Bacterial Biotransformation [1] | Bacterial Biotransformation [2] | Bacterial Biotransformation [3] | Bacterial Biotransformation [4] | Bacterial Biotransformation [5] | Bacterial Biotransformation [6] | Bacterial Biotransformation [7] | Bacterial Biotransformation [8] | Bacterial Biotransformation [9] | Bacterial Biotransformation [10] | Bacterial Biotransformation [11] | Bacterial Biotransformation [12] | Bacterial Biotransformation [13] | Bacterial Biotransformation [14] | Bacterial Biotransformation [15] | Bacterial Biotransformation [16] | Bacterial Biotransformation [17] | Bacterial Biotransformation [18] | Bacterial Biotransformation [19] | Bacterial Biotransformation [20]
1 | CN1CCc2c(c3ccccc3n2Cc2ccccc2)C1.CN1CCc2c(c3ccccc3n2Cc2ccccc2)C1.O=S(=O)(O)c1cccc2c(S(=O)(=O)O)cccc12 | Compound NOT metabolized | Compound NOT metabolized | Compound NOT metabolized | Compound metabolized | Compound NOT metabolized | Compound NOT metabolized | Compound NOT metabolized | Compound NOT metabolized | Compound NOT metabolized | Compound NOT metabolized | Compound NOT metabolized | Compound NOT metabolized | Compound NOT metabolized | Compound metabolized | Compound NOT metabolized | Compound NOT metabolized | Compound NOT metabolized | Compound NOT metabolized | Compound NOT metabolized | Compound NOT metabolized
2 | COc1cc2nc(N(C)CCCNC(=O)C3CCCO3)nc(N)c2cc1OC (stereo not given) [ALFUZOSIN] | Compound NOT metabolized | Compound metabolized | Compound NOT metabolized | Compound metabolized | Compound metabolized | Compound NOT metabolized | Compound metabolized | Compound NOT metabolized | Compound metabolized | Compound metabolized | Compound metabolized | Compound NOT metabolized | Compound NOT metabolized | Compound metabolized | Compound metabolized | Compound NOT metabolized | Compound NOT metabolized | Compound metabolized | Compound NOT metabolized | Compound metabolized
3 | NC12CC3CC(CC(C3)C1)C2 [AMANTADINE] | Compound NOT metabolized | Compound NOT metabolized | Compound NOT metabolized | Compound NOT metabolized | Compound NOT metabolized | Compound NOT metabolized | Compound NOT metabolized | Compound NOT metabolized | Compound NOT metabolized | Compound NOT metabolized | Compound NOT metabolized | Compound NOT metabolized | Compound NOT metabolized | Compound metabolized | Compound NOT metabolized | Compound NOT metabolized | Compound NOT metabolized | Compound NOT metabolized | Compound NOT metabolized | Compound NOT metabolized
4 | CC(C)(C#N)c1cc(Cn2cncn2)cc(C(C)(C)C#N)c1 [ANASTROZOLE] | Compound NOT metabolized | Compound metabolized | Compound NOT metabolized | Compound metabolized | Compound metabolized | Compound NOT metabolized | Compound metabolized | Compound NOT metabolized | Compound metabolized | Compound NOT metabolized | Compound NOT metabolized | Compound NOT metabolized | Compound NOT metabolized | Compound metabolized | Compound NOT metabolized | Compound NOT metabolized | Compound NOT metabolized | Compound metabolized | Compound NOT metabolized | Compound metabolized
5 | O=P(O)(O)O.c1ccc(CN(CC2=NCCN2)c2ccccc2)cc1 [ANTAZOLINE PHOSPHATE] | Compound NOT metabolized | Compound metabolized | Compound NOT metabolized | Compound NOT metabolized | Compound metabolized | Compound NOT metabolized | Compound NOT metabolized | Compound NOT metabolized | Compound metabolized | Compound metabolized | Compound NOT metabolized | Compound NOT metabolized | Compound NOT metabolized | Compound metabolized | Compound metabolized | Compound NOT metabolized | Compound NOT metabolized | Compound metabolized | Compound NOT metabolized | Compound metabolized
